According to BindingDB's records for PubMed 38457911 (China Pharmaceutical University):

Key:
[1] = biological target: E3 ubiquitin-protein ligase CBL (Homo sapiens) (UniProt P22681); test: Binding affinity to c-Cbl (unknown origin) assessed as dissociation constant by SPR assay
[2] = biological target: E3 ubiquitin-protein ligase CBL; test: Inhibition of c-Cbl (unknown origin) by HTRF method
[3] = biological target: E3 ubiquitin-protein ligase CBL; test: Inhibition of c-Cbl (unknown origin) by TR-FRET assay
[4] = biological target: E3 ubiquitin-protein ligase CBL; test: Inhibition of c-Cbl (unknown origin) expressed in Escherichia coli measured for 90 mins by HTRF method

Row | IC50 [2] | IC50 [4] | Structure (SMILES) | other results
1 | 0.008 µM | – | CC(C)[C@H]1CN(C)CCN1Cc1cc(C(=O)Nc2cccc(C3([C@@H](F)c4nncn4C)CC(F)(F)C3)c2)nc(C2CC2)c1 | –
2 | – | 0.01 µM | Cn1cnnc1[C@]1(c2cccc(NC(=O)c3cc(CN4CCC[C@H](C(F)F)C4)cn4ccnc34)c2)C[C@H](CC#N)C1 | –
3 | – | 0.04 µM | CC(c1cc(C(=O)Nc2cccc([C@]3(c4nncn4C)C[C@@H](CC#N)C3)c2)nc2cc[nH]c12)N1CCC[C@H](C)C1 (stereo partly specified) | –

More lines, now with the values behind:

Row | Structure (SMILES) | IC50 [2] | IC50 [4] | other results
4 | COCC1(NCc2cc3c(c(C(F)(F)F)c2)CN(c2cccc([C@]4(c5nncn5C)C[C@H](OC)C4)c2)C3=O)CC1 [2-(3-((1r,3r)-3-methoxy-1-(4-methyl-4H-1,2,4-triazol-3-yl)cyclobutyl)phenyl)-6-(((1-(methoxymethyl)cyclopropyl)amino)methyl)-4-(trifluoromethyl)isoindolin-1-one] | – | – | Kd [1]: 0.21 µM
5 | C[C@H]1CCCN(Cc2cc(C(F)(F)F)c3[nH]c(-c4cccc([C@]5(c6nncn6C)C[C@@H](C)C5)c4)nc3c2)C1 | – | – | IC50 [3]: > 10 µM
6 | Cn1cnnc1-c1cc(C#N)ccc1-c1cc(C2CC2)nc(N2Cc3c(cc(CNCC4(F)CCC4)cc3C(F)(F)F)C2=O)c1 | < 0.2 µM | – | –
